Key:
[1] = target: Sodium-dependent dopamine transporter (Homo sapiens, UniProt Q01959); test: Displacement of […] from recombinant human Dopamine transporter after 120 mins by scintillation counting analysis; format: ADME
[2] = target: T1, Metabotropic glutamate receptor 7 (Rattus norvegicus, UniProt P35400); test: (§1) Positive allosteric modulation of rat mGlu7 receptor expressed in HEK293 cells co-expressing Gai5 assessed as potentiation of L-AP4-induced calcium mobilization preincubated for 140 secs and treated with EC20 L-AP4 for 125 secs and followed by subsequent addition of EC80 L-AP4 by Fluo-4-AM dye based fluorescence assay; format: functional, cell-based
T1 sequence (P35400 whole entry): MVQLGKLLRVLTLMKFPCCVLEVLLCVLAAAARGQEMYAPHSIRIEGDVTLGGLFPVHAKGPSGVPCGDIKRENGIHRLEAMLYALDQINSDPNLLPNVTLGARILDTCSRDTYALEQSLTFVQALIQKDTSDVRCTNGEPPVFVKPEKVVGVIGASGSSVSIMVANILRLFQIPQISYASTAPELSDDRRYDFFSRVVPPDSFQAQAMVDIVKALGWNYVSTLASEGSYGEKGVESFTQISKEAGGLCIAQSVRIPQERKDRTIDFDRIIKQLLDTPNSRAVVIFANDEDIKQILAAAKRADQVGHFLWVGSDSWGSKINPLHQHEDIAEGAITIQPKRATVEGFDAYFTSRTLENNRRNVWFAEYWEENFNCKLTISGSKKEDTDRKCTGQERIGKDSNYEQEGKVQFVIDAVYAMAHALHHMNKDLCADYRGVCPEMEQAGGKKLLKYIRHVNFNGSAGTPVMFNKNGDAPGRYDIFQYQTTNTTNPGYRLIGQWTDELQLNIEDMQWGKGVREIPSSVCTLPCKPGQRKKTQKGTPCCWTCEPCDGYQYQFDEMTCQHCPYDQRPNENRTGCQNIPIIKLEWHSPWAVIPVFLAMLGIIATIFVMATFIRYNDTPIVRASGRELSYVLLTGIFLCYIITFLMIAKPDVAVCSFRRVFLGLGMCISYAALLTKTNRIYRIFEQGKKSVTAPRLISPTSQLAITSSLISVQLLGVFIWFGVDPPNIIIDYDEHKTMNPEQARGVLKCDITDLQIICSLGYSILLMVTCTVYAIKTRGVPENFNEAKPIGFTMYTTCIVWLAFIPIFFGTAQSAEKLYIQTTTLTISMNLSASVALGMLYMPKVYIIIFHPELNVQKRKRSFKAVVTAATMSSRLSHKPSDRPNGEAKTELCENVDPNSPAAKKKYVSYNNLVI

[3] = target: Metabotropic glutamate receptor 7 (Rattus norvegicus) (UniProt P35400); test: as §1, with “assay relative to maximal induction of L-AP4” for “assay”; format: functional, cell-based; conditions: filed as positive allosteric modulator, time 140.0 sec
Sequence of Metabotropic glutamate receptor 7 (Rattus norvegicus) (P35400 whole entry): as above

[4] = target: T2, Metabotropic glutamate receptor 3 (Homo sapiens, UniProt Q14832); test: Positive allosteric modulation of mGlu3 receptor (unknown origin)
[5] = target: hERG (KCNH2) (Homo sapiens, UniProt Q12809); test: Displacement of [3H]-Astemizole from human recombinant full length ERG channel at 10 uM incubated for 60 mins by scintillation counting analysis relative to control; conditions: probe [3H]-astemizole
[6] = target: T3, Metabotropic glutamate receptor 4 (Homo sapiens, UniProt Q14833); test: Positive allosteric modulation of mGlu4 receptor (unknown origin)
[7] = Fraction unbound in mouse plasma at 5 uM incubated for 4 hrs by equilibrium dialysis based LC-MS/MS analysis; format: ADME, cell-free
[8] = Hepatic intrinsic clearance in rat liver microsomes at 1 uM preincubated for 5 mins followed by NADPH addition and measured up to 45 mins by LC-MS/MS analysis; format: ADME, Microsome; conditions: read-out: CLH
[9] = Half-life in Sprague-Dawley rat at 1 mg/kg, iv and 10 mg/kg, po measured up to 24 hrs by LC-MS/MS analysis; format: ADME, organism-based; conditions: in vivo
[10] = Unbound plasma to brain permeability coefficient, Kp of the compound in Sprague-Dawley rat at 0.2 mg/kg, iv measured after 0.25 hrs by LC-MS/MS analysis; format: ADME, organism-based; conditions: read-out: K(p,uu,brain)
[11] = target: dopamine transporter (DAT) (Homo sapiens, UniProt Q01959); test: Displacement of […] from recombinant human Dopamine transporter at 10 uM after 120 mins by scintillation counting analysis relative to control; format: ADME
Sequence of dopamine transporter (DAT) (Q01959 whole entry): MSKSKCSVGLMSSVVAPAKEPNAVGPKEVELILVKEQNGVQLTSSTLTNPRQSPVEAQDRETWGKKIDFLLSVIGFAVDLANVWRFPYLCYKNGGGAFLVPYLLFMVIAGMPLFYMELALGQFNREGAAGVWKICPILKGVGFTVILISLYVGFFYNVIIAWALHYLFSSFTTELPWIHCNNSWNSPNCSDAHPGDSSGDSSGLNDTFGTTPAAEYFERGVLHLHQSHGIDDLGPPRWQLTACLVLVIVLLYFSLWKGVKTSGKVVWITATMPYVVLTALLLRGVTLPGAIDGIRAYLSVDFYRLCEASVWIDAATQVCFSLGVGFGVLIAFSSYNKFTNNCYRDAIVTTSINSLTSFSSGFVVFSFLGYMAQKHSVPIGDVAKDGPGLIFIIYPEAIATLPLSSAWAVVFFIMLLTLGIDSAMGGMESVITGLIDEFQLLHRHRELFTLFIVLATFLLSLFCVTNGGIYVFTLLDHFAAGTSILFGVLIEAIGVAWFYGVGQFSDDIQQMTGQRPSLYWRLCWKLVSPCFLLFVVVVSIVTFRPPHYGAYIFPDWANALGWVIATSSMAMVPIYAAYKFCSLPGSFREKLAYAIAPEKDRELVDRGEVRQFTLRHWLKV

[12] = Unbound plasma to brain permeability coefficient, Kp of the compound in CD-1 mouse at 10 mg/kg, ip measured after 0.5 hrs by LC-MS/MS analysis; format: ADME, organism-based; conditions: read-out: K(p,uu,brain)
[13] = target: Sigma non-opioid intracellular receptor 1 (Homo sapiens, UniProt Q99720); test: Displacement of [3H]-Pentazocine from human recombinant sigma 1 receptor incubated for 120 mins by scintillation counting analysis relative to control
Sequence of Sigma non-opioid intracellular receptor 1 (Q99720 whole entry): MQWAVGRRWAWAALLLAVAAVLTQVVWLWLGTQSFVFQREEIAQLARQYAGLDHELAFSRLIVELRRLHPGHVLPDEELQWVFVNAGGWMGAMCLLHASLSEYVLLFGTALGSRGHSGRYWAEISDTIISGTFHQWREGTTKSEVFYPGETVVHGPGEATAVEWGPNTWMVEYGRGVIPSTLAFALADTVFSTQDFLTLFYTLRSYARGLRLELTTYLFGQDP

[14] = Fraction unbound in rat brain at 5 uM incubated for 6 hrs by equilibrium dialysis based LC-MS/MS analysis; format: ADME, tissue-based
[15] = target: T4, Metabotropic glutamate receptor 2 (Homo sapiens, UniProt Q14416); test: Positive allosteric modulation of mGlu2 receptor (unknown origin)
T4 sequence (Q14416 whole entry): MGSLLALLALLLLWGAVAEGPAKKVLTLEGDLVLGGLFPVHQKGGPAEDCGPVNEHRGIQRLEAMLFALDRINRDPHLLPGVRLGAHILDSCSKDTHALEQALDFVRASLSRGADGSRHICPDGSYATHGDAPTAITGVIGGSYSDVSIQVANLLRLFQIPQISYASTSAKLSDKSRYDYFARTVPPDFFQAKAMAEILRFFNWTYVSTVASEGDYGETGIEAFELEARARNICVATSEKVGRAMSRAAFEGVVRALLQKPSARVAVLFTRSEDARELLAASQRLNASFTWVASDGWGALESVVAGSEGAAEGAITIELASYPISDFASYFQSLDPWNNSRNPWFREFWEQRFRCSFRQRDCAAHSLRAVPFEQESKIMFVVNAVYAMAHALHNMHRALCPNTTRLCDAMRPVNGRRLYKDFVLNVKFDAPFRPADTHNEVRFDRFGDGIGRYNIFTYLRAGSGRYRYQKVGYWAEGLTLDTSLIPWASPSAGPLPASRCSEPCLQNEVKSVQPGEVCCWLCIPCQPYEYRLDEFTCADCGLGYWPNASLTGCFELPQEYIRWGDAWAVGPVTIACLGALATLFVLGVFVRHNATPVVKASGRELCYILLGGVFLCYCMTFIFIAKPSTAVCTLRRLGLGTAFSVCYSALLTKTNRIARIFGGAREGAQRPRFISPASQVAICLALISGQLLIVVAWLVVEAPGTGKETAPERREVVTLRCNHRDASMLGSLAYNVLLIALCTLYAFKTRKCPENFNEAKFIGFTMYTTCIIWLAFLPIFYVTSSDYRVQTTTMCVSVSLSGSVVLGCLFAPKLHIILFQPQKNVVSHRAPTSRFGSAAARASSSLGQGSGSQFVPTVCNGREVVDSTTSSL

[16] = target: T5, Metabotropic glutamate receptor 1 (Homo sapiens, UniProt Q13255); test: Positive allosteric modulation of mGlu1 receptor (unknown origin)
[17] = Hepatic intrinsic clearance in mouse liver microsomes at 1 uM preincubated for 5 mins followed by NADPH addition and measured up to 45 mins by LC-MS/MS analysis; format: ADME, Microsome; conditions: read-out: CLH
[18] = Fraction unbound in rat plasma at 5 uM incubated for 4 hrs by equilibrium dialysis based LC-MS/MS analysis; format: ADME, cell-free
[19] = Oral bioavailability in Sprague-Dawley rat at 10 mg/kg measured upto 24 hrs by LC-MS/MS analysis; format: ADME, organism-based; conditions: in vivo
[20] = target: T6, Metabotropic glutamate receptor 5 (Homo sapiens, UniProt P41594); test: Positive allosteric modulation of mGlu5 receptor (unknown origin)
T6 sequence (P41594 whole entry): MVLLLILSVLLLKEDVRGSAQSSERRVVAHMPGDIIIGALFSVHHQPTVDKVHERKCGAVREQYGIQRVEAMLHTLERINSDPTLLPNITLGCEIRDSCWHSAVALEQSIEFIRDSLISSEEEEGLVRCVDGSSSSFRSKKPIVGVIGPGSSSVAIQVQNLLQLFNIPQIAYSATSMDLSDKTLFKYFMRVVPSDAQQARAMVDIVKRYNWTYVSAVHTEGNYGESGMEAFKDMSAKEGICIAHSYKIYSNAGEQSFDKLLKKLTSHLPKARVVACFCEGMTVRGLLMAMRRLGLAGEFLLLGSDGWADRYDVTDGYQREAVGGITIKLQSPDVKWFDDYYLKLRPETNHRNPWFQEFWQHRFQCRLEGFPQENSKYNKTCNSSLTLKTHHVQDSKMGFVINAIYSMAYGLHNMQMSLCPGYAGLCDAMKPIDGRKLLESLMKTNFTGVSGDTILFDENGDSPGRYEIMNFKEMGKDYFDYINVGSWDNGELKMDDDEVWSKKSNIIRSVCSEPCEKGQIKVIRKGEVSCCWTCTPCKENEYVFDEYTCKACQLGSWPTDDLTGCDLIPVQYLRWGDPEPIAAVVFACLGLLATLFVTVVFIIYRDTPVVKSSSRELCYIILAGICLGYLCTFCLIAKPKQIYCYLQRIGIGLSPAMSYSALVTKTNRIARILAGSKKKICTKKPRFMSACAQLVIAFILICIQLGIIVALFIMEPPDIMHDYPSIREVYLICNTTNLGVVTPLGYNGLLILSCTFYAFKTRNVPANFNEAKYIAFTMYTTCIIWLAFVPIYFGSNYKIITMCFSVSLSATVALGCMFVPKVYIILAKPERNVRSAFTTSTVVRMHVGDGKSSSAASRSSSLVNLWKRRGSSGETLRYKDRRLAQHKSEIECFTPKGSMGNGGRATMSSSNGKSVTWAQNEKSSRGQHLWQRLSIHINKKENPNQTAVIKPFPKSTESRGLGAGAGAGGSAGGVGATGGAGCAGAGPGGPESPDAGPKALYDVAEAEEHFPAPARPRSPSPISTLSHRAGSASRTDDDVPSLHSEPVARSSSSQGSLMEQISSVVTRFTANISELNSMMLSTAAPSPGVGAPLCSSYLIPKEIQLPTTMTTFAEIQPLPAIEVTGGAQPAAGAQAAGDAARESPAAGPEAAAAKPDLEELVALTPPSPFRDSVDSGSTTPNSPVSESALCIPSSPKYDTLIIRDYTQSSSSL

[21] = Plasma to brain permeability coefficient, Kp of the compound in CD-1 mouse at 10 mg/kg, ip measured after 0.5 hrs by LC-MS/MS analysis; format: ADME, organism-based
[22] = target: T7, Metabotropic glutamate receptor 8 (Homo sapiens, UniProt O00222); test: Positive allosteric modulation of mGlu8 receptor (unknown origin)
T7 sequence (O00222 whole entry): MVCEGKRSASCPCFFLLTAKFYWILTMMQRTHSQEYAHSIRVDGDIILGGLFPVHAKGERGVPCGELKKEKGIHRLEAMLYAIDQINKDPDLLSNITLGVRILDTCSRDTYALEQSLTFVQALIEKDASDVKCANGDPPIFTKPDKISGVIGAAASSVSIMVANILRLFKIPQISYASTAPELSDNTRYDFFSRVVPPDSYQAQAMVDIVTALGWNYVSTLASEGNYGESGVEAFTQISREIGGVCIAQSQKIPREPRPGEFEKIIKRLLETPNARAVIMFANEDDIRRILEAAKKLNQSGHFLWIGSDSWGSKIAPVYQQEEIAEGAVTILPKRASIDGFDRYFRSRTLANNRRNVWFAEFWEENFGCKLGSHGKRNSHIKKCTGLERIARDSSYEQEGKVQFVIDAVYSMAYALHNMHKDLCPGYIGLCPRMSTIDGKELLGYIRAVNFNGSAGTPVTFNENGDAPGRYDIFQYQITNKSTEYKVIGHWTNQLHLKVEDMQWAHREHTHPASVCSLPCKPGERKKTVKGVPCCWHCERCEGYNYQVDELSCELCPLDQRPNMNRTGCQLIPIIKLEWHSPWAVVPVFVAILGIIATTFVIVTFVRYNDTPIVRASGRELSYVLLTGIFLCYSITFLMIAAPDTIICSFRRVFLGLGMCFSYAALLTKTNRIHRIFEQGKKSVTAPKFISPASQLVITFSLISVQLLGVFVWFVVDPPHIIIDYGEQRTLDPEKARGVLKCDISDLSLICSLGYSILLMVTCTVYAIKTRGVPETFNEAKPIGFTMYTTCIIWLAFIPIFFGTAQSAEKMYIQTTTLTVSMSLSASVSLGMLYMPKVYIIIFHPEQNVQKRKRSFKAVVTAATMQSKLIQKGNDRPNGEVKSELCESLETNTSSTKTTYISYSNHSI

[23] = Plasma to brain permeability coefficient, Kp of the compound in Sprague-Dawley rat at 0.2 mg/kg, iv measured after 0.25 hrs by LC-MS/MS analysis; format: ADME, organism-based
[24] = Fraction unbound in mouse brain at 5 uM incubated for 6 hrs by equilibrium dialysis based LC-MS/MS analysis; format: ADME, tissue-based
[25] = target: T1, Metabotropic glutamate receptor 7; test: Positive allosteric modulation of rat mGlu7 expressed in HEK293 cells co- expressing GIRK assessed as potentiation of L-AP4-induced thallium flux incubated for 140 sec by FluoZin2-AM dye based fluorescence analysis; format: cell-based
[26] = target: T5, Metabotropic glutamate receptor 1; test: Negative allosteric modulation of mGlu1 receptor (unknown origin)
[27] = target: T2, Metabotropic glutamate receptor 3; test: Negative allosteric modulation of mGlu3 receptor (unknown origin)
[28] = target: T4, Metabotropic glutamate receptor 2; test: Negative allosteric modulation of mGlu2 receptor (unknown origin)
[29] = Plasma to brain permeability coefficient, Kp of the compound in rat; format: ADME, cell-free
[30] = target: T6, Metabotropic glutamate receptor 5; test: Negative allosteric modulation of mGlu5 receptor (unknown origin)
[31] = target: T7, Metabotropic glutamate receptor 8; test: Negative allosteric modulation of mGlu8 receptor (unknown origin)
[32] = Unbound plasma to brain permeability coefficient, Kp of the compound in rat; format: ADME, cell-free; conditions: read-out: K(p,uu,brain)
[33] = target: T3, Metabotropic glutamate receptor 4; test: Negative allosteric modulation of mGlu4 receptor (unknown origin)
[34] = target: Metabotropic glutamate receptor 7 (Rattus norvegicus) (UniProt P35400); test: Positive allosteric modulation of rat mGlu7 expressed in HEK293 cells co- expressing GIRK assessed as potentiation of L-AP4-induced thallium flux incubated for 140 sec by FluoZin2-AM dye based fluorescence analysis relative to maximal induction of L-AP4; format: cell-based; conditions: filed as positive allosteric modulator

Sequence of Sodium-dependent dopamine transporter (Q01959 whole entry): as the sequence (Q01959 whole entry) above

COc1c(F)ccc2c(N3CCN(c4ccccc4F)CC3)c(C#N)cnc12
IC50 [1]: 3 µM
EC50 ([2]; read-out: EC50): 1.8 µM
Activity [3]: 53%

N#Cc1cnc2c(OC(F)F)cccc2c1N1CCN(c2ccccc2F)CC1
EC50 ([2]; read-out: EC50): > 10 µM
Activity [3]: 68%

COc1ccc(F)c2c(N3CCN(c4ccccc4F)CC3)c(C#N)cnc12
IC50 [1]: 4 µM
EC50 ([2]; read-out: EC50): > 10 µM
Activity [3]: 35%

N#Cc1cnc2c(OC(F)F)cc(F)cc2c1N1CCN(c2ccccc2F)CC1
EC50 ([2]; read-out: EC50): 3.8 µM
Activity [3]: 98%

COc1c(F)c(F)cc2c(N3CCN(c4ccccc4F)CC3)c(C#N)cnc12
IC50 [1]: 2.2 µM
EC50 ([2]; read-out: EC50): 1.1 µM
Activity [3]: 62%

[2H]C([2H])([2H])Oc1cc(F)cc2c(N3CCN(c4ccccc4F)CC3)c(C#N)cnc12
EC50 [4]: > 30 µM
inhibition at 1 h, 10 µM [5]: < 50%
EC50 [6]: > 30 µM
fraction unbound at 4 h, 5 µM [7]: 0.01
CLint scaled at 1 µM [8]: 46.9 mL/min/kg
half-life [9]: 7.5 h
Kp uu at 0.25 h [10]: 0.96
inhibition at 2 h, 10 µM [11]: < 50%
Kp uu at 0.5 h [12]: 0.23
IC50 [13]: 3.5 µM
fraction unbound at 6 h, 5 µM [14]: 0.002
EC50 [15]: > 30 µM
Ki [1]: > 10 µM
EC50 [16]: > 30 µM
CLint scaled at 1 µM [17]: 84.4 mL/min/kg
fraction unbound at 4 h, 5 µM [18]: 0.01
EC50 ([2]; read-out: EC50): 1.1 µM
EC50 ([2]; read-out: pEC50 (converted)): 1.58 µM
bioavailability [19]: 69.5%
EC50 [20]: > 30 µM
Kp at 0.5 h [21]: 2.74
EC50 [22]: > 10 µM
Kp at 0.25 h [23]: 4.78
fraction unbound at 6 h, 5 µM [24]: 0.001
EC50 [25]: 0.99 µM

N#Cc1cnc2c(OC3CCOC3)cc(F)cc2c1N1CCN(c2ccccc2F)CC1 (stereo not given)
EC50 ([2]; read-out: EC50): 0.51 µM
Activity [3]: 71%

N#Cc1cnc2c(N3CCC(F)(F)CC3)cccc2c1N1CCN(c2ccccc2F)CC1
EC50 ([2]; read-out: EC50): > 10 µM
Activity [3]: 22%

N#Cc1cnc2c(-n3cccn3)cccc2c1N1CCN(c2ccccc2F)CC1
EC50 ([2]; read-out: EC50): > 10 µM
Activity [3]: 22%

CCOC(=O)c1cnc2c(OC)cccc2c1N1CCN(c2ccccc2F)CC1
IC50 [26]: > 30 µM
IC50 [27]: > 30 µM
IC50 [28]: > 30 µM
Kp [29]: 4.7
IC50 [30]: > 30 µM
IC50 [31]: > 30 µM
Kp uu [32]: 0.96
IC50 [33]: > 30 µM

[2H]C([2H])([2H])Oc1cccc2c(N3CCN(c4ccccc4F)CC3)c(C#N)cnc12
EC50 ([2]; read-out: EC50): 1.5 µM

CC(C)Oc1cc(F)cc2c(N3CCN(c4ccccc4F)CC3)c(C#N)cnc12
fraction unbound at 4 h, 5 µM [7]: 0.004
CLint scaled at 1 µM [8]: 50.7 mL/min/kg
Kp uu at 0.25 h [10]: 1
fraction unbound at 6 h, 5 µM [14]: 0.001
Ki [1]: > 10 µM
CLint scaled at 1 µM [17]: 76.2 mL/min/kg
fraction unbound at 4 h, 5 µM [18]: 0.005
EC50 ([2]; read-out: EC50): 0.69 µM
Activity [3]: 82%
Activity [34]: 54.5%
Kp at 0.25 h [23]: 4.99
fraction unbound at 6 h, 5 µM [24]: 0.001
EC50 [25]: 0.75 µM

N#Cc1cnc2c(OCC3CCOC3)cccc2c1N1CCN(c2ccccc2F)CC1 (racemic)
Activity [3]: 88%

N#Cc1cnc2c(OC3CCOC3)cccc2c1N1CCN(c2ccccc2F)CC1 (single isomer, unassigned; (-))
Activity [3]: 70%

N#Cc1cnc2c(OCC3CCOC3)cccc2c1N1CCN(c2ccccc2F)CC1 (stereo in doubt; (-)-20f)
EC50 ([2]; read-out: EC50): 1.3 µM

CC(C)Oc1cccc2c(N3CCN(c4ccccc4F)CC3)c(C#N)cnc12
EC50 ([2]; read-out: EC50): 1.25 µM
Activity [3]: 67%

N#Cc1cnc2c(N3CCCC3)cccc2c1N1CCN(c2ccccc2F)CC1
EC50 ([2]; read-out: EC50): > 10 µM
Activity [3]: 22%

N#Cc1cnc2c(OCC3CCOC3)cc(F)cc2c1N1CCN(c2ccccc2F)CC1 (stereo not given)
EC50 ([2]; read-out: EC50): 0.65 µM
Activity [3]: 76%
